Experimental data reported in patent publication US20070041904A1, “Peptides whose uptake by cells is controllable” (priority 2003, published 2007).

Legend:
Jurkat cells [1] = assay: 99mTc-labeled ACPP uptake into Jurkat cells, gamma counting; type: cell-based, human; details: for increase in cell-associated radioactivity after cleavage: MMP-9 cleaved vs intact
Protocol: ACPPs may be used to deliver radioactive cargo to target cells and tissues. […] Spiked with 0.25 mCi Tc label, 25 nM intact or cleaved substrate. The target Jurkat cells were incubated with the peptides for 30 min at 37° C., and then washed 3 times with HBSS (HEPES-buffered saline solution) at room temperature (RT). 20 hours later, cells were counted by Gamma counter.
Spiked (4%) with 60 μCi ^99mTc-labeled peptide, the target Jurkat cells were loaded with 2 μM intact or MMP-9-cleaved peptide at 37° C. for 30 min. Then, the cells were washed with RT HBSS 3 times, and counted (Gamma counter) 20 hours later.
The use of ACPP labeled with technetium-99m (^99mTc) as described in Example 19 can be extended for use as an imaging agent for mouse models of cancer. One obvious advantage of gamma scintigraphy as compared to fluorescent imaging is that gamma imaging reaches much deeper into tissue. As described above, various carrier-conjugated ACPPs that incorporate N-epsilon-bis(2-pyridylmethyl)lysine (DPK), a high-affinity chelator for technetium tricarbonyl, Tc(CO)3, have been prepared. […] The simplest of these compounds, (11 KDa-mPEG)-e9-XPLGLAG-r9-[DPK-^99mTc(CO)3] was first tested on isolated cultured cells. (Note: X denotes a 6-aminohexanoyl spacer, and lower case letters denote D-amino acids.) Before cleavage, the uptake of this CPP into Jurkat lymphocytes was only 1.9% of the positive control CPP, r9-[DPK-^99mTc(CO)3].

Jurkat cells [2] = assay: Gd-labeled ACPP uptake into Jurkat cells, ICP-MS; type: cell-based, human
Protocol: Gadolinium chloride (GdCl3) is used to add gadolinium (Gd) to provide a contrast-enhancing, PEGylated ACPP mPEG-S—CH2CONH-e9-ahx-PLGLAG-r9-K[DOTA(Gd)]-CONH2 (SEQ ID NO: 75). It will be understood that in other embodiments the ACPP need not include a PEG moiety, and may include other moieties as well. […] Jurkat cells were incubated with 8 μM of the intact or of the cleaved substrate at 37° C. for 30 min; then the cells were washed four times with RT HBSS. Gd concentration was determined by ICP-MS (inductively coupled plasma mass spectroscopy). Cleavage led to a 19-fold increase in uptake by target cells.
Three ACPPs carrying Gd^3+ were synthesized: (11-KDa-mPEG)-e9-XPLGLAG-r9-K(DOTA-Gd), Suc9-(70 KDa dextran)-e9-XPLGLAG-r9-K(DOTA-Gd), and Suc9-(70 KDa dextran)-e9-XPLGLAX-r9-K(DOTA-Gd). The first of these ACCPs was tested at 8 μM on isolated Jurkat lymphocytes. Gd^3+ uptake was measured by inductively coupled plasma mass spectroscopy. […] Thus, MMP-mediated cleavage of the test peptide increased uptake by a factor of 19-fold […].

[3] = system: neprilysin / meprin / MMP-9; assay: In-vitro phage selection, Nep/Mep/MMP-9
Protocol: (§1) In-vitro selection strategies involved screening for phage that are specifically cleaved by purified enzymes or tissue extracts associated with tumor tissue while also selecting against cleavage by enzymes and extracts associated with normal tissue. […] The inventors have employed two different in-vitro selection paradigms. In the initial selection, the 2.5×10^6 diversity M13 library was treated with the kidney proteases meprin and neprilysin for 3 hours. Ni-NTA agarose (Qiagen) was then added and allowed to bind to the phage for 5-15 minutes, then the Ni-NTA agarose carrying the phage was resuspended with MMP-9 and incubated at 37 for 2-3 hours. After removing the beads by centrifugation, phage released into the supernatant were plated with fresh bacteria. This procedure selects for phage that remain uncleaved by kidney proteases but are then released by MMP-9. This procedure was repeated for as many as six rounds with representative phage being isolated and sequenced to monitor the selection process. The same selection procedure was also performed with liver/kidney extract instead of meprin/neprilysin and tumor extract instead of MMP-9. The resulting sequences are tabulated below. The most promising peptides were chemically resynthesized with flanking e9 and r9 sequences and a C-terminal fluorescein tag. They were then assayed by tricine gel electrophoresis for cleavage by tumor, liver, kidney extracts and MMP-9.

[4] = Phage display selection, all screens
Protocol: (§2) In-vivo selections were performed by injection of phage libraries into mice either containing tumor xenografts (HT1080 cells) or mammary tumors in transgenic mice (MMTV-PyMT). Tumor tissues were removed 3-24 hrs after injection. The rescued phage were re-amplified in bacteria and reinjected into another mouse for up to 7 iterative cycles of selection. Representative phage were isolated at each round and sequenced to monitor the selection process.
as §1

furin = assay: Furin inhibition assay; type: biochemical
Protocol: The furin assay was performed with Boc-Arg-Val-Arg-Arg-MCA substrate (Bachem) at a final concentration of 200 μM in 100 μl of 100 mM MES/NaOH, pH 7.0, containing 1 mM CaCl2. Inhibitory peptides were pre-incubated with 1 unit furin enzyme (NEB) for 30 min prior to addition of substrate. Assays were performed in triplicate by incubation at 37° C. for 4 hours in a 96-well clear-bottom black-wall Costar plate. Release of MCA was measured by excitation at 380 nm and emission at 460 nm. IC50's were determined as the concentration of inhibitor required to inhibit 50% of the emission increase at 460 nm over the no-enzyme control. […]

[5] = In-vitro phage selection, liver/kidney/tumor extracts
Protocol: as §1

MMP-2 = assay: Cleavage kinetics for MMP-2 cleavage; type: biochemical
Excerpt: Cleavage kinetics for MMP-2 cleavage of H2N-e6-XPLGLAG-r9-Xc(Cy5)-CONH2 (where X≡aminohexanoic acid) are illustrated in FIG. 27.
Cleavage of a MMP-2 substrate ACPP is illustrated in FIG. 27.

[6] = system: HT1080 tumor xenografts or mammary tumors (MMTV-PyMT); assay: In-vivo phage selection; set-up: species or system mice; details: mouse
Protocol: as §2

HT-1080 tumors = assay: In vivo fluorescence imaging of HT-1080 tumor xenografts; set-up: species or system nude mice; details: mean±SE
Protocol: Xenografts in Mice. Nude mice (age, 4-6 weeks) were injected s.c. with ≈10^6 HT-1080 cells. […] Animals were then imaged at various times by using a Nikon f/1.2 camera lens in front of a cooled charge-coupled device camera (SenSys, Photometrics, Tucson, Ariz.). For longer lasting imaging studies, animals were allowed to wake up after 2 h of anesthesia and were reanesthetized at ≈4 and 6 hr for further data collection. […] After imaging was ended, animals were killed with halothane, and organs of interest were harvested and weighed. […] Cy5 fluorescence was imaged as described above.
We next tested whether ACPPs could light up protease expressing human tumor xenografts in whole mice. We chose HT-1080 tumors in the axilla of nude mice because these tumors express both MMP-2 and MMP-9 and have been used to test other MMP-2 cleavable contrast agents (22, 26). […] Anesthetized mice were injected through the tail vein with either an MMP-2 cleavable ACPP, an isomeric scrambled version verified not to be a substrate for MMP-2 or MMP-9, or an all-D-amino acid version. […] To quantitate the results, we measured the contrast index defined as (fluorescence intensity of tumor−autofluorescence)/(fluorescence of normal contralateral region−autofluorescence).

Sequence of furin (P09958 108-576 limits assumed): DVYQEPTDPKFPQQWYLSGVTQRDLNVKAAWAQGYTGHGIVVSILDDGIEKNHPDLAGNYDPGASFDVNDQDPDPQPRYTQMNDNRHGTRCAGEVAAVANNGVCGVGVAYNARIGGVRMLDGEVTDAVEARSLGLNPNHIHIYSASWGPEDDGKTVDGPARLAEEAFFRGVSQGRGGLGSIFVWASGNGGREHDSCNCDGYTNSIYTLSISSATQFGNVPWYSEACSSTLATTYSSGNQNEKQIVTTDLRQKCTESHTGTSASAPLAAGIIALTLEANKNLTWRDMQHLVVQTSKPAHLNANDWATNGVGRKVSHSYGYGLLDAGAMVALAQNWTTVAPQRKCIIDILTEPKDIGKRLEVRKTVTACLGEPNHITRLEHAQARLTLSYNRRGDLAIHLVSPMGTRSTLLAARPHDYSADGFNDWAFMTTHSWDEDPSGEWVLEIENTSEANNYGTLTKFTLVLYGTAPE

| Substance | # times identified in Nep/Mep/MMP-9 screen [3] | Total # times isolated [4] | further results |
| --- | --- | --- | --- |
| (11 KDa-mPEG)-e9-XPLGLAG-r9-[DPK-^99mTc(CO)3] | – | – | increase in cell-associated radioactivity after cleavage (Jurkat cells [1]): 57 -fold; uptake after cleavage, % of positive control (Jurkat cells [1]; after MMP-9): 107%; uptake before cleavage, % of positive control CPP (Jurkat cells [1]; positive control r9-[DPK-99mTc(CO)3]): 1.9% |
| (11-KDa-mPEG)-e9-XPLGLAG-r9-K(DOTA-Gd) | – | – | increase in Gd uptake after cleavage (Jurkat cells [2]; 8 μM): 19 -fold; Gd3+ uptake, MMP-9-cleaved peptide (Jurkat cells [2]; 8 μM, ICP-MS): 737 µM; Gd3+ uptake, intact peptide (Jurkat cells [2]; 8 μM, ICP-MS): 39 µM |
| ARKRSQ | 2 | 2 | – |
| Ac-r9-k-NH2 [reference compound] | – | – | IC50 (furin; intact / uncleaved peptide): 3.4 µM |
| DSNAES | 3 | 4 | # times identified in liver/kidney/tumor screen [5]: 1 |
| DVGTTE | 5 | 5 | – |
| FMEIET | 3 | 3 | – |
| GGHTRQ | 2 | 2 | – |
| GLWQGP | – | 7 | # times identified in liver/kidney/tumor screen [5]: 7 |
| GMMYRS | 1 | 4 | # times identified in liver/kidney/tumor screen [5]: 3 |
| H2N-e6-XPLGLAG-r9-Xc(Cy5)-CONH2 | – | – | Km (MMP-2): 534 µM; kcat (MMP-2): 15.0 s⁻¹; kcat/Km (MMP-2): 28,037 M^−1s^−1 |
| HEVVAG | 2 | 2 | – |
| IDKQLE | 3 | 3 | – |
| INGKVT | 2 | 2 | – |
| ITDMAA | – | 4 | # times identified in in-vivo screen [6]: 1; # times identified in liver/kidney/tumor screen [5]: 3 |
| LPGMMG | – | 5 | # times identified in liver/kidney/tumor screen [5]: 5 |

| Substance | # times identified in Nep/Mep/MMP-9 screen [3] | Total # times isolated [4] | further results |
| --- | --- | --- | --- |
| QCTGRF | 1 | 6 | # times identified in in-vivo screen [6]: 1; # times identified in liver/kidney/tumor screen [5]: 4 |
| RLQLKL | – | 12 | # times identified in in-vivo screen [6]: 1; # times identified in liver/kidney/tumor screen [5]: 11 |
| RWRTNF | 4 | 4 | – |
| TDLGAM | – | 5 | # times identified in liver/kidney/tumor screen [5]: 5 |
| TSAVRT | – | 2 | # times identified in in-vivo screen [6]: 2 |
| WRNTIA | 3 | 3 | – |
| WRPCES | 2 | 3 | # times identified in in-vivo screen [6]: 1 |
| [11 kDa PEG]-X-e9-XPLG*LAG-r9 [cleavable ACPP] | – | – | contrast index (tumor−autofluorescence)/(normal contralateral−autofluorescence) (HT-1080 tumors): 2.1±0.17 |
| [11 kDaPEG]-X-e9-XLALGPG-r9 [scrambled isomer] | – | – | contrast index (tumor−autofluorescence)/(normal contralateral−autofluorescence) (HT-1080 tumors): 1.3±0.16 |
| [11-kDa PEG]-X-e9-Xplglag-r9-Xk(Cy5) [all-D-amino acid control] | – | – | contrast index (tumor−autofluorescence)/(normal contralateral−autofluorescence) (HT-1080 tumors): 1.5±0.11 |
| decanoyl-RVKR-chloromethylketone [reference compound] | – | – | IC50 (furin; control inhibitor): 0.027 µM |
| e9-XPLGLAG-r9-Xk-NH2 | – | – | IC50 (furin; intact / uncleaved peptide): 27 µM |
| mPEG(11 kd)-S—CH2—CONH-ahx-e9-ahx-PLGLAG-r9-ahx-k-CONH2 | – | – | increase in cell-associated radioactivity after cleavage (Jurkat cells [1]): 38 -fold |
| mPEG(11kd)-e9-XPLGLAG-r9-Xk-NH2 | – | – | IC50 (furin; intact / uncleaved peptide): > 50 µM |
| mPEG-S—CH2CONH-e9-ahx-PLGLAG-r9-K[DOTA(Gd)]-CONH2 | – | – | increase in Gd uptake after cleavage (Jurkat cells [2]; 8 μM): 19 -fold |
| r9-K(DOTA-Gd) [reference compound] | – | – | Gd3+ uptake, positive control CPP (Jurkat cells [2]; ICP-MS): 504 µM |
